The source made the active and inactive calls.
How the values were obtained:
HEK293 = test: inhibitors of LMP1-driven NF-kB reporter, dose response, cell-based, HEK293, luciferase, cherry-pick (AID 588343); format: functional; details: Homo sapiens
[1] = molecular target: T1, Histone-lysine N-methyltransferase NSD2 (Homo sapiens, UniProt O96028); format: biochemical
T1 sequence (O96028 whole entry): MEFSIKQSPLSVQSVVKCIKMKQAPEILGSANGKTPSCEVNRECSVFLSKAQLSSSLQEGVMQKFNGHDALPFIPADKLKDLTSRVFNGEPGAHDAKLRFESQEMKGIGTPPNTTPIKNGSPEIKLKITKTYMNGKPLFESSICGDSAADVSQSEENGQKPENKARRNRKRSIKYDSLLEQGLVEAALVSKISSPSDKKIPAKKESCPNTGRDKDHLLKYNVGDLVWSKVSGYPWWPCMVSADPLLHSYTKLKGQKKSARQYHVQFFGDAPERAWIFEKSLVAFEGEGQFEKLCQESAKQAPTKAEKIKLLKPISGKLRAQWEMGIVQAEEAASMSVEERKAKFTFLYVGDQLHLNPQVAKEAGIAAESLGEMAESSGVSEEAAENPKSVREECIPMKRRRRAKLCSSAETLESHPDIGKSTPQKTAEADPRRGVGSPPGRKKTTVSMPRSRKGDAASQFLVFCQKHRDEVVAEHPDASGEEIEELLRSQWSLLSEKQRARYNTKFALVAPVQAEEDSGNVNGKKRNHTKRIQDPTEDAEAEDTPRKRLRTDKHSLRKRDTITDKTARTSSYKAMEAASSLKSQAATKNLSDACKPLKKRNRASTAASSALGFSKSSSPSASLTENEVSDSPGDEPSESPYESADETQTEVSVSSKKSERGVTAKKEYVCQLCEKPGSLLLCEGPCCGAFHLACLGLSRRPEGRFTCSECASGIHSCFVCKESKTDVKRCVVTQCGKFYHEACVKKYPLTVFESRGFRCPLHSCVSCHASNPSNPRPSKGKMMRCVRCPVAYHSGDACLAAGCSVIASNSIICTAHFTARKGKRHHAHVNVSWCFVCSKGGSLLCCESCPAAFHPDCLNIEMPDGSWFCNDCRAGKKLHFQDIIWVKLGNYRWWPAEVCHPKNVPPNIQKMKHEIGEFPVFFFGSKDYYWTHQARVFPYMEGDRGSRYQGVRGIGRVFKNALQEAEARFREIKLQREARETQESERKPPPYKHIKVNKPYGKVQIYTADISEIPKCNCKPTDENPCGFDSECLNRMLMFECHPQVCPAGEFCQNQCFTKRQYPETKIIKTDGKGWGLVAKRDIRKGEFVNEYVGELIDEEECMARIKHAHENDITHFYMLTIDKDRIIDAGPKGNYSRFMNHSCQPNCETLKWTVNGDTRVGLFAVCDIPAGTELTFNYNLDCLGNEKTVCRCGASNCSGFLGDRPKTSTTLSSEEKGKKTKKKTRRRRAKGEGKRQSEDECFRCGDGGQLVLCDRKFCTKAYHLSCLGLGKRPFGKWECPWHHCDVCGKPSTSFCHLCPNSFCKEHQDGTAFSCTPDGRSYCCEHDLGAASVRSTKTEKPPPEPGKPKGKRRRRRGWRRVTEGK

[2] = molecular target: T2, RNA-binding protein pos-1 (Caenorhabditis elegans, UniProt G5EF15); test: inhibitors of POS-1/mex-3 RNA binding, dose response, biochemical, fluorescence polarization (AID 1964);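 note: purified POS-1 fused to maltose binding protein made in E. coli; potency of compounds blocking POS-1 binding to fluorescent RNA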
T2 sequence (G5EF15 whole entry): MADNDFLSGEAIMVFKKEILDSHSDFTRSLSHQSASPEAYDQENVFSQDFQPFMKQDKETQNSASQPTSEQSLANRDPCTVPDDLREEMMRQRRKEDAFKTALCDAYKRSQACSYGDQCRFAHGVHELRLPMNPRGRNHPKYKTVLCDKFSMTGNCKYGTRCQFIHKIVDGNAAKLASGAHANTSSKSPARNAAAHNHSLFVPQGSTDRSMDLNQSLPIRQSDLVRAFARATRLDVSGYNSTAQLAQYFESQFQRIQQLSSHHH

Escherichia coli = test: microbe, parasite or virus in culture
[3] = molecular target: T3, Zinc finger protein mex-5 (Caenorhabditis elegans, UniProt Q9XUB2); test: MEX-5/TCR-2 RNA interaction inhibitors, dose response, biochemical, C. elegans, fluorescence polarization (AID 1960)
T3 sequence (Q9XUB2 whole entry): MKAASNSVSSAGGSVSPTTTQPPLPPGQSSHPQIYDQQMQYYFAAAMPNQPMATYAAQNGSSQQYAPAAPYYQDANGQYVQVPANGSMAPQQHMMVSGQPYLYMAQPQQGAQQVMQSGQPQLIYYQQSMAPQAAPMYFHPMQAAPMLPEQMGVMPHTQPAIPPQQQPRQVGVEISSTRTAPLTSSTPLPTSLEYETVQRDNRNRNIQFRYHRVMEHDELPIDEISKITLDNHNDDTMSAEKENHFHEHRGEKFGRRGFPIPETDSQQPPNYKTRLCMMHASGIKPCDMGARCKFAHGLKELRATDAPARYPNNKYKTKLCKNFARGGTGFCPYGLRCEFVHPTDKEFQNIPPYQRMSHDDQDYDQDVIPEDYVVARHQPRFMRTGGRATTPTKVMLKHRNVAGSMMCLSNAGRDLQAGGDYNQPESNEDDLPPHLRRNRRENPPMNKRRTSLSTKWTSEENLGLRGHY

[4] = molecular target: T4, Carboxy-terminal domain RNA polymerase II polypeptide A small phosphatase 1 (Homo sapiens, UniProt Q9GZU7); test: inhibitors of CTDSP1, concentration-response testing, biochemical assay, absorbance-based, actives from ultra-high-throughput screening (AID 540297); format: functional
T4 sequence (Q9GZU7 whole entry): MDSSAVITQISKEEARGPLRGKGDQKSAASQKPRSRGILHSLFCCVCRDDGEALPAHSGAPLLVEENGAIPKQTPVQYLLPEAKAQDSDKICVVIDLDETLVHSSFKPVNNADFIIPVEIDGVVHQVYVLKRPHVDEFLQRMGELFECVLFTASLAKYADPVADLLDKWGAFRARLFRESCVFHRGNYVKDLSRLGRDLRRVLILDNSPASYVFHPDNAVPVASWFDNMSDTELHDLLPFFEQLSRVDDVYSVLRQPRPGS

[5] = molecular target: T5, Neuropeptide Y receptor type 1 (Homo sapiens, UniProt P25929); format: functional;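 note: HEK293 cells with a CNG channel challenged with NPY then isoproterenol; potency as antagonist that reverses NPY suppression of cAMP signal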
T5 sequence (P25929 whole entry): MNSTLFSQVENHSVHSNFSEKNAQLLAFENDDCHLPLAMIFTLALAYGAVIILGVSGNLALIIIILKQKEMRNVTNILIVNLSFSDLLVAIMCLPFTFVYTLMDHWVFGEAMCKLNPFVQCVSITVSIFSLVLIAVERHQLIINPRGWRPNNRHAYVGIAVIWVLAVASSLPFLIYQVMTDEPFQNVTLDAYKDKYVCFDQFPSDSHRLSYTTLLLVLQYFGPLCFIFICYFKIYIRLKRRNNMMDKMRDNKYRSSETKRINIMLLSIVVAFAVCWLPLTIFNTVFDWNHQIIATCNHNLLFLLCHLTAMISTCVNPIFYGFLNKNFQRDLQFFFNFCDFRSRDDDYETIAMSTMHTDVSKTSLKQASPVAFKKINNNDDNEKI

Cysteine protease ATG4B = molecular target: T6, Cysteine protease ATG4B (Homo sapiens, UniProt Q9Y4P1); format: functional;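 note: Fluorescence-based dose-response confirmation assay measuring inhibition of ATG4B activity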
T6 sequence (Q9Y4P1 whole entry): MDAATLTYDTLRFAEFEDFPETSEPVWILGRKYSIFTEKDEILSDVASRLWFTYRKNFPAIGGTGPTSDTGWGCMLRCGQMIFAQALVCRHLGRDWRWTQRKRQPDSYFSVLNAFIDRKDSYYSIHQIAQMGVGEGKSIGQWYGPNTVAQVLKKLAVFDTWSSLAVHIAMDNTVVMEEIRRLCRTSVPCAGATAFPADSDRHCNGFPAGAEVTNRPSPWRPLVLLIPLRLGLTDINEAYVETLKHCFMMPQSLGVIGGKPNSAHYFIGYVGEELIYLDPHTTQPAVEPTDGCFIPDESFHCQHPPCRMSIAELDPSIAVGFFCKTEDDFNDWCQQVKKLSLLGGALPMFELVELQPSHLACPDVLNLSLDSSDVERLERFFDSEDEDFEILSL

Phospholipase A2 = Phospholipase A2 (Homo sapiens, UniProt P04054); format: functional;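 note: confirmatory dose-response counterscreen on phospholipase A2, testing hits that came from an ultra-high-throughput screen for ATG4B inhibitors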
[6] = molecular target: T7, Neuropeptide Y receptor type 2 (Homo sapiens, UniProt P49146); format: functional, cell-based;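 note: HEK293 cells expressing the receptor and a CNG channel; stimulus was NPY near EC95 followed by isoproterenol to raise cAMP; antagonist potency measured as restoring cAMP signal that NPY suppresses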
T7 sequence (P49146 whole entry): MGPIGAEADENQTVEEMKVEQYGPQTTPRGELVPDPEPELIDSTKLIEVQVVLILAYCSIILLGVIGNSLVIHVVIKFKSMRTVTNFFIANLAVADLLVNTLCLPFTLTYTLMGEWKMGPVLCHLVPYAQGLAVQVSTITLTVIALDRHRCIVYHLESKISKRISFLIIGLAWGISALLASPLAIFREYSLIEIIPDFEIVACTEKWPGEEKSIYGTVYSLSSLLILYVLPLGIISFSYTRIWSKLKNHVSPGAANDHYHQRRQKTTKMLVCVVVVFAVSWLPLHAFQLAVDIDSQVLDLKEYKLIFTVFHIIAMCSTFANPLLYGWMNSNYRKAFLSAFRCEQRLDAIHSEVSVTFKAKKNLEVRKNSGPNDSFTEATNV

[7] = molecular target: T8, Endoribonuclease toxin MazF (Escherichia coli K-12, UniProt P0AE70); test: fluorescent RNA oligo signal without MazF, dose response, counter-screen for MazEF activator project, biochemical, fluorescence, single-stranded RNase substrate (AID 588502); format: functional
T8 sequence (P0AE70 whole entry): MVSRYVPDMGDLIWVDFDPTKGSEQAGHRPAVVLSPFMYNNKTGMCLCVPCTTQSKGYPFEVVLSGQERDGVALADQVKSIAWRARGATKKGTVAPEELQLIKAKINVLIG

[8] = molecular target: T8, Endoribonuclease toxin MazF; test: MazF toxin RNase activators, dose response, biochemical, fluorescence, single-stranded RNA substrate, uHTS hits (AID 588481); format: functional
[9] = molecular target: T9, Mitochondrial peptide methionine sulfoxide reductase (Bos taurus, UniProt P54149); test: Absorbance-based biochemical high throughput dose response assay for activators of Methionine sulfoxide reductase A (MsrA).; format: functional
T9 sequence (P54149 whole entry): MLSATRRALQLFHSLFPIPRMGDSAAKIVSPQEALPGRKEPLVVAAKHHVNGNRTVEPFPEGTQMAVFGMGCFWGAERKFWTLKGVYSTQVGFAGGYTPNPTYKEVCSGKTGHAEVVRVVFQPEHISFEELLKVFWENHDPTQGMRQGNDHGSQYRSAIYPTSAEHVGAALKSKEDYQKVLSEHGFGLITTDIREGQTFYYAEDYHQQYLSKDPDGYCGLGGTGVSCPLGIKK

[10] = molecular target: DNA dC->dU-editing enzyme APOBEC-3A (Homo sapiens, UniProt P31941); test: SAR analysis of small molecule inhibitors of APOBEC3A DNA Deaminase via a fluorescence-based single-stranded DNA deaminase assay - Set 2.; format: functional; details: read-out: IC50_Mean
[11] = molecular target: DNA dC->dU-editing enzyme APOBEC-3G (Homo sapiens, UniProt Q9HC16); test: SAR analysis of small molecule inhibitors of APOBEC3G DNA Deaminase via a fluorescence-based single-stranded DNA deaminase assay - Set 2.; format: functional; details: read-out: IC50_Mean
P388/ADR = test: cells; format: functional; details: Mus musculus
SN12K1 = test: cells; format: functional; details: Homo sapiens
P388 = test: cells; format: functional; details: Mus musculus

Sequence of Phospholipase A2 (P04054 whole entry): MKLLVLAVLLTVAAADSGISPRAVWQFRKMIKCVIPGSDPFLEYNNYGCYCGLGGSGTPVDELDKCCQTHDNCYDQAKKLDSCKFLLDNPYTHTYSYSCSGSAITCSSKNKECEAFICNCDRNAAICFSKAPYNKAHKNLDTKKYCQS
Sequence of DNA dC->dU-editing enzyme APOBEC-3G (Q9HC16 whole entry): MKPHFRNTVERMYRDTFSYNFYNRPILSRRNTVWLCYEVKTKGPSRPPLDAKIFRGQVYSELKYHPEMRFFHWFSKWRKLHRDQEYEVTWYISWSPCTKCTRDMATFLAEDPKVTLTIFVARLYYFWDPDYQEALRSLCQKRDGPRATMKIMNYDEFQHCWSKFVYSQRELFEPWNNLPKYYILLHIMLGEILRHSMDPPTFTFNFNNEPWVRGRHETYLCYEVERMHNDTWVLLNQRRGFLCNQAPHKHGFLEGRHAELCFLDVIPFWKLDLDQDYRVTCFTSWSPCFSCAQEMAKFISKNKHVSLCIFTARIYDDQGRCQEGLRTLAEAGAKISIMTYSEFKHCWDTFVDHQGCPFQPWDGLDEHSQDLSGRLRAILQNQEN
Sequence of DNA dC->dU-editing enzyme APOBEC-3A (P31941 whole entry): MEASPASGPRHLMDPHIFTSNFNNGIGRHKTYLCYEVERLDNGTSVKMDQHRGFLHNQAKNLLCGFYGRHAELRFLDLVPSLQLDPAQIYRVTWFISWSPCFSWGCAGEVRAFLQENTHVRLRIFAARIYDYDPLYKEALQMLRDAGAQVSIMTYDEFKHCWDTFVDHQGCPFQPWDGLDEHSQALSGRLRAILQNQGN

Compound: COc1ccc(-n2c(C)c([N+](=O)[O-])c3ccc(O)c(CN(C)C)c32)cc1
- AC50 (HEK293): 2.53 µM (active)

Compound: CCOc1cccc(=O)c2c(C)n(-c3ccc(C(=O)O)cc3)c(C)c12
- AC50 [1]: 17.2 µM (active)
- EC50 [2]: 41.3 µM (active)
- AC50 (Escherichia coli): > 150 µM (inactive)
- EC50 [3]: 29.6 µM (active)
- IC50 [4]: 4.54 µM (active)

Compound: CC(Sc1ccc(Cl)cc1)C(=O)Nc1ccccc1-c1ccccc1 (centres undefined)
- IC50 [5]: 10.3 µM (not active)
- IC50 (Cysteine protease ATG4B): 49.7 µM (inactive)
- IC50 (Phospholipase A2): 4.74 µM (active)
- IC50 [6]: 4.77 µM (active)

Compound: COc1cc(OC)cc(-c2nc3ccccc3c(=O)n2OC(=O)c2ccccc2C)c1
- IC50 (Cysteine protease ATG4B): 21.4 µM (inactive)
- IC50 (Phospholipase A2): 7.51 µM (active)

Compound: CCSc1nnc(N2C(=O)C(O)=C(C(=O)c3ccco3)C2c2cccc(OC)c2)s1 (centres undefined)
- EC50 [7]: > 99 µM (inactive)
- EC50 [8]: > 99 µM (inactive)

Compound: NC(=S)NN=C1CSSC1
- EC50 [9]: 12.9 µM (inactive)

Compound: CN(Cc1ccccc1)C(=O)c1cc2ncc(Br)cn2n1
- IC50 [10]: 34.5 µM (inactive)
- IC50 [11]: 77.8 µM (inactive)

Compound: CN1c2c(O)nc(N)nc2NCC1CCNc1ccc(C(=O)NC(CCC(=O)O)C(=O)O)cc1 (centres undefined)
- GI50 (P388/ADR): 2.49 µM (inactive)
- GI50 (SN12K1): 5.5 µM (inactive)
- GI50 (P388): 4.5 µM (inactive)

Compound: CCCCCCNC(=O)C(C)C1CCC2(C)C=CC(=O)C(C)=C2C1O (centres undefined)
- GI50 (P388/ADR): > 42.3 µM (inactive)
- GI50 (SN12K1): > 100 µM (inactive)
- GI50 (P388): 62.5 µM (inactive)

Compound: O=C(NCc1ccccc1)c1cccc(COc2ccc3c(c2)CCC3)c1
- AC50 (HEK293): 4.83 µM (active)

Compound: N=c1c[n+](N2CCOCC2)[n-]o1
- EC50 [7]: > 99 µM (inactive)
- EC50 [8]: 30.3 µM (inactive)

Compound: COc1cc([C@@H]2c3cc4c(cc3C[C@H]3COC(=O)[C@@H]32)OCO4)cc(OC)c1OC [DESOXYPODOPHYLLOTOXIN]
- GI50 (P388/ADR): 0.0108 µM (active)
- GI50 (SN12K1): 0.00596 µM (active)
- GI50 (P388): 0.005 µM (active)
